Results published in publication PMC11274128, “Modification and Synergistic Studies of a Novel Frog Antimicrobial Peptide against Pseudomonas aeruginosa Biofilms” (Antibiotics, 2024).
≈ marks a conversion by molar mass, not a printed value. Where two headings read alike, the source gives them in different places. Each block holds one compound with its values, some of them ahead of it. Bridge positions count the residues as written; N and C are the ends. Peptide text beside a SMILES is read from it.

Experiments:
[1] = test system: A. baumannii (BAA 747); assay: microbe, parasite or virus in culture; type: cell-based, Acinetobacter baumannii
Text: (§1) The minimum inhibitory concentration (MIC) is the minimum concentration of an antimicrobial agent that prevents the visible growth of a bacterium or bacteria. The MIC is an important piece of data for research on new antimicrobial agents and helps in the effective selection of antibiotics to improve the success of treatment. The minimum bactericidal concentration (MBC) is defined as the lowest antibiotic concentration that kills 99.9% of the inoculum. This study mainly contained eight different microorganisms, which were Staphylococcus aureus (ATCC 6538), methicillin-resistant Staphylococcus aureus (NCTC 12493), Enterococcus faecalis (NCTC 12697), Escherichia coli (ATCC 8739), Klebsiella pneumoniae (ATCC 43816), Pseudomonas aeruginosa (ATCC CRM 9027), Acinetobacter baumannii (BAA 747), and Candida albicans (ATCC 10231). The bacteria were incubated in the compatible medium at 37 °C overnight.

[2] = test system: Yeast; assay: Geometric mean of MICs and TI value; type: cell-based, Candida albicans; details: C. albicans ATCC 10231
Protocol: (§2) The therapeutic potential of antimicrobial agents was valued based on their selectivity toward bacteria in reference to erythrocytes. The TI value was calculated from the results of antibacterial and haemolysis experiments of peptides using the following formula:TI value = HC10 / GMMICs.
(§3) GM was the geometric mean of MICs against all tested bacteria.

[3] = test system: MRSA (NCTC 12493); assay: microbe, parasite or virus in culture; type: cell-based, methicillin-resistant Staphylococcus aureus
Text: as §1

[4] = test system: G− Bacteria; assay: Geometric mean of MICs and TI value; type: cell-based; details: geometric mean of MICs against tested Gram-negative bacteria
Protocol: as §2, §3

[5] = test system: G+ Bacteria; assay: Geometric mean of MICs and TI value; type: cell-based; details: geometric mean of MICs against tested Gram-positive bacteria
Protocol: as §2, §3

[6] = test system: S. aureus (ATCC 6538); assay: microbe, parasite or virus in culture; type: cell-based, Staphylococcus aureus
Text: as §1

[7] = test system: horse red blood cells; details: horse red blood cells in PBS, 37 °C, 2 h, absorbance 570 nm; positive control 0.1% Triton
Protocol: The pure peptide was dissolved in PBS and then two-fold diluted to obtain a series of concentrations: 512, 256, 128, 64, 32, 16, 8, 4, and 2 μM. A positive control (0.1% Triton) and blank control (PBS) were used. Two millilitres of fresh horse red blood cells were washed in PBS until the supernatant became colourless and clear, and the mixture was then thoroughly mixed. Each mixture contained 100 μL of peptide solution or controls and 100 μL of horse red blood cells, which were then incubated at 37 °C for 2 h and centrifuged at 930× g for 10 min. Subsequently, 100 μL of supernatant from each tube was transferred into a 96-well plate, and the plate reader measured the absorbance at a wavelength of 570 nm. The haemolysis rate was calculated using the following formula:Percentage Haemolysis= (ASample − ABlank)/(APositive − ABlank) × 100%

[8] = test system: K. pneumoniae (ATCC 43816); assay: microbe, parasite or virus in culture; type: cell-based, Klebsiella pneumoniae
Text: as §1

[9] = test system: E. coli (ATCC 8739); assay: microbe, parasite or virus in culture; type: cell-based, Escherichia coli
Text: as §1

[10] = test system: P. aeruginosa (ATCC CRM 9027); assay: microbe, parasite or virus in culture; type: cell-based, Pseudomonas aeruginosa
Text: as §1

[11] = test system: C. albicans (ATCC 10231); type: cell-based, Candida albicans; details: yeast C. albicans ATCC 10231
Text: as §1

[12] = test system: E. faecalis (NCTC 12697); assay: microbe, parasite or virus in culture; type: cell-based, Enterococcus faecalis; details: Enterococcus faecalis, NCTC12697
Text: as §1

[13] = Acinetobacter baumannii, BAA747
[14] = Staphylococcus aureus, ATCC6538
[15] = Klebsiella pneumoniae, ATCC43816

Structure (SMILES): CC[C@H](C)[C@H](NC(=O)[C@H](CCCCN)NC(=O)[C@H](CCCCN)NC(=O)CNC(=O)[C@H](C)NC(=O)[C@H](C)NC(=O)[C@H](CC(C)C)NC(=O)[C@@H](NC(=O)[C@H](C)NC(=O)[C@H](CCCNC(=N)N)NC(=O)[C@H](CC(C)C)NC(=O)[C@H](CC(C)C)NC(=O)CN)C(C)C)C(=O)N[C@H](C(=O)N[C@H]1CSSC[C@@H](C(=O)O)NC(=O)[C@H](CCCNC(=N)N)NC(=O)CNC(=O)[C@H](CO)NC(=O)[C@H](CC(C)C)NC(=O)CNC1=O)C(C)C [Peptide 2085-R] (H-GLLRAVLAAGKKIVCGLSGRC-OH; disulfide 15-21)
MIC ([1]; planktonic A. baumannii BAA 747, 37 °C, nine repeats of three independent experiments, read-out: MIC): 32 µM (≈ 66.7 µg/mL) | MBC ([1]; planktonic A. baumannii BAA 747, lowest concentration killing 99.9% of inoculum, read-out: MBC): 64 µM (≈ 133 µg/mL) | GM (geometric mean of MICs), Yeast [2]: 32.00 µM | MIC ([3]; planktonic MRSA NCTC 12493, 37 °C, nine repeats of three independent experiments, read-out: MIC): 16 µM (≈ 33.3 µg/mL) | MBC ([3]; planktonic MRSA NCTC 12493, lowest concentration killing 99.9% of inoculum, read-out: MBC): 32 µM (≈ 66.7 µg/mL) | GM (geometric mean of MICs), G− Bacteria [4]: 32.00 µM | GM (geometric mean of MICs), G+ Bacteria [5]: 25.40 µM | MIC ([6]; planktonic S. aureus ATCC 6538, 37 °C, nine repeats of three independent experiments): 16 µM (≈ 33.3 µg/mL) | MBC ([6]; planktonic S. aureus ATCC 6538, lowest concentration killing 99.9% of inoculum): 16 µM (≈ 33.3 µg/mL) | HC10 [7]: >256 µM | MIC ([8]; planktonic K. pneumoniae ATCC 43816, 37 °C, nine repeats of three independent experiments, read-out: MIC): 32 µM (≈ 66.7 µg/mL) | MBC ([8]; planktonic K. pneumoniae ATCC 43816, lowest concentration killing 99.9% of inoculum, read-out: MBC): 64 µM (≈ 133 µg/mL) | MIC ([9]; planktonic E. coli ATCC 8739, 37 °C, nine repeats of three independent experiments): 16 µM (≈ 33.3 µg/mL) | MBC ([9]; planktonic E. coli ATCC 8739, lowest concentration killing 99.9% of inoculum): 16 µM (≈ 33.3 µg/mL) | MIC ([10]; planktonic P. aeruginosa ATCC CRM 9027, 37 °C, nine repeats of three independent experiments): 64 µM (≈ 133 µg/mL) | MBC ([10]; planktonic P. aeruginosa ATCC CRM 9027, lowest concentration killing 99.9% of inoculum): 64 µM (≈ 133 µg/mL) | MIC ([11]; 37 °C, nine repeats of three independent experiments): 32 µM (≈ 66.7 µg/mL) | MBC ([11]; lowest concentration killing 99.9% of inoculum): 32 µM (≈ 66.7 µg/mL)

Structure (SMILES): CN[C@H](CC(C)C)C(=O)N[C@H]1C(=O)N[C@@H](CC(N)=O)C(=O)N[C@H]2C(=O)N[C@H]3C(=O)N[C@H](C(=O)N[C@H](C(=O)O)c4cc(O)cc(O)c4-c4cc3ccc4O)[C@H](O)c3ccc(c(Cl)c3)Oc3cc2cc(c3O[C@@H]2O[C@H](CO)[C@@H](O)[C@H](O)[C@H]2O[C@H]2C[C@](C)(N)[C@H](O)[C@H](C)O2)Oc2ccc(cc2Cl)[C@H]1O [Vancomycin, reference compound]
MBC [1, 13]: > 128 µM | MIC [1, 13]: > 128 µM | MBC ([3]; Staphylococcus aureus): 8 µM (≈ 11.6 µg/mL) | MIC ([3]; Staphylococcus aureus): 4 µM (≈ 5.8 µg/mL) | MBC [12]: > 128 µM | MIC [12]: 32 µM (≈ 46.4 µg/mL) | MBC [6, 14]: 64 µM (≈ 92.8 µg/mL) | MIC [6, 14]: 8 µM (≈ 11.6 µg/mL) | MBC [8, 15]: > 128 µM | MIC [8, 15]: > 128 µM | MBC ([9]; Escherichia coli, ATCC8739): > 128 µM | MIC ([9]; Escherichia coli, ATCC8739): 32 µM (≈ 46.4 µg/mL) | MBC ([10]; Pseudomonas aeruginosa): > 128 µM | MIC ([10]; Pseudomonas aeruginosa): > 128 µM

MIC ([1]; Acinetobacter baumannii, BAA747, planktonic A. baumannii BAA 747, 37 °C, nine repeats of three independent experiments, read-out: MIC): 1 µM (≈ 0.361 µg/mL) | MIC ([3]; Staphylococcus aureus, planktonic MRSA NCTC 12493, 37 °C, nine repeats of three independent experiments, read-out: MIC): 0.25 µM (≈ 0.0903 µg/mL) | MIC ([12]; planktonic E. faecalis NCTC 12697, 37 °C, nine repeats of three independent experiments, read-out: MIC): 2 µM (≈ 0.723 µg/mL) | MIC ([6]; Staphylococcus aureus, ATCC6538, planktonic S. aureus ATCC 6538, 37 °C, nine repeats of three independent experiments, read-out: MIC): 0.5 µM (≈ 0.181 µg/mL) | MIC ([8]; Klebsiella pneumoniae, ATCC43816, planktonic K. pneumoniae ATCC 43816, 37 °C, nine repeats of three independent experiments, read-out: MIC): > 128 µM | MIC ([9]; Escherichia coli, ATCC8739, planktonic E. coli ATCC 8739, 37 °C, nine repeats of three independent experiments, read-out: MIC): 0.25 µM (≈ 0.0903 µg/mL) | MIC ([10]; Pseudomonas aeruginosa, planktonic P. aeruginosa ATCC CRM 9027, 37 °C, nine repeats of three independent experiments, read-out: MIC): 2 µM (≈ 0.723 µg/mL)
Structure (SMILES): C[C@H]1COc2c(N3CCN(C)CC3)c(F)cc3c(=O)c(C(=O)O)cn1c23 [Levofloxacin, reference compound]
MBC ([1]; Acinetobacter baumannii, BAA747, planktonic A. baumannii BAA 747, lowest concentration killing 99.9% of inoculum, read-out: MBC): 1 µM (≈ 0.361 µg/mL) | MBC ([3]; Staphylococcus aureus, planktonic MRSA NCTC 12493, lowest concentration killing 99.9% of inoculum, read-out: MBC): 0.5 µM (≈ 0.181 µg/mL) | MBC ([12]; planktonic E. faecalis NCTC 12697, lowest concentration killing 99.9% of inoculum, read-out: MBC): 8 µM (≈ 2.89 µg/mL) | MBC ([6]; Staphylococcus aureus, ATCC6538, planktonic S. aureus ATCC 6538, lowest concentration killing 99.9% of inoculum, read-out: MBC): 0.5 µM (≈ 0.181 µg/mL) | MBC ([8]; Klebsiella pneumoniae, ATCC43816, planktonic K. pneumoniae ATCC 43816, lowest concentration killing 99.9% of inoculum, read-out: MBC): > 128 µM | MBC ([9]; Escherichia coli, ATCC8739, planktonic E. coli ATCC 8739, lowest concentration killing 99.9% of inoculum, read-out: MBC): 0.5 µM (≈ 0.181 µg/mL) | MBC ([10]; Pseudomonas aeruginosa, planktonic P. aeruginosa ATCC CRM 9027, lowest concentration killing 99.9% of inoculum, read-out: MBC): 2 µM (≈ 0.723 µg/mL)
